This is an account of results in patent US7928140B2, “Benzothiazole PI3 kinase modulators for cancer treatment” (Amgen Inc., priority 2007, dated 2011).

Where two headings read alike, the source gives them in different places.

In general, IC50 refers to the concentration at which inhibition is half-maximal.

In assay [1] the target is T1, PI3K β (Homo sapiens, UniProt P42338).
T1 construct: Full length p110 subunits of PI3K α, β and δ, N-terminally labeled with polyHis tag; polyHis (N); made in house; host or cells: Sf9 insect cells (baculovirus)
T1 sequence (P42338 whole entry): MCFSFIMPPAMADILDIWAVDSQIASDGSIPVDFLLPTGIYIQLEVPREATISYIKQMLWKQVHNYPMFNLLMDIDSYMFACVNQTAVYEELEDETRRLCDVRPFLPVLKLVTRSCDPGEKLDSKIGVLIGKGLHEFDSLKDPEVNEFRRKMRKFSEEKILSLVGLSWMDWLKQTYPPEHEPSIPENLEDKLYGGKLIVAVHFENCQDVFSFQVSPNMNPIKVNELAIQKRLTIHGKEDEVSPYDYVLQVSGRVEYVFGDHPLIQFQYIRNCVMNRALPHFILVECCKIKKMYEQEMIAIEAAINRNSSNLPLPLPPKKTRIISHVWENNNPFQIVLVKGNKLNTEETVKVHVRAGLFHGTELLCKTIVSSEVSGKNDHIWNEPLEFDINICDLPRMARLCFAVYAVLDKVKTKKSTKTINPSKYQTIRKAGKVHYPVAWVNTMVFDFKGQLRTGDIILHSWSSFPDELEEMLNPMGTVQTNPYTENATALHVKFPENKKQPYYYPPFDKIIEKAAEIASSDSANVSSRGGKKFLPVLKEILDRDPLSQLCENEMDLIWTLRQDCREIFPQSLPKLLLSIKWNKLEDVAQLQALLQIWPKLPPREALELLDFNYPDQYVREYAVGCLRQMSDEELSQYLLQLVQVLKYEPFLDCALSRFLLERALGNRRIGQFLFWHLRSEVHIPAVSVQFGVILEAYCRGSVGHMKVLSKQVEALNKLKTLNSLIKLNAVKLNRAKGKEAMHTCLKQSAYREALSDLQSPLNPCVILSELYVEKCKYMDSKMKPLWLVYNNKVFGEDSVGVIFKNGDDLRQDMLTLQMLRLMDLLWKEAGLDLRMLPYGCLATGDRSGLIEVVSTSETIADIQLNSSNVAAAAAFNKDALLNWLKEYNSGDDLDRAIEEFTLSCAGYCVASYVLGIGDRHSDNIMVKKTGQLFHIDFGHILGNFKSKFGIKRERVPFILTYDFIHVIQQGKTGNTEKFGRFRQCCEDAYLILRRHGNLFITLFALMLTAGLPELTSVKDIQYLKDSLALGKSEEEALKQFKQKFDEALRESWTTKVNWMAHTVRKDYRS
T1 sequence (P27986 whole entry partner): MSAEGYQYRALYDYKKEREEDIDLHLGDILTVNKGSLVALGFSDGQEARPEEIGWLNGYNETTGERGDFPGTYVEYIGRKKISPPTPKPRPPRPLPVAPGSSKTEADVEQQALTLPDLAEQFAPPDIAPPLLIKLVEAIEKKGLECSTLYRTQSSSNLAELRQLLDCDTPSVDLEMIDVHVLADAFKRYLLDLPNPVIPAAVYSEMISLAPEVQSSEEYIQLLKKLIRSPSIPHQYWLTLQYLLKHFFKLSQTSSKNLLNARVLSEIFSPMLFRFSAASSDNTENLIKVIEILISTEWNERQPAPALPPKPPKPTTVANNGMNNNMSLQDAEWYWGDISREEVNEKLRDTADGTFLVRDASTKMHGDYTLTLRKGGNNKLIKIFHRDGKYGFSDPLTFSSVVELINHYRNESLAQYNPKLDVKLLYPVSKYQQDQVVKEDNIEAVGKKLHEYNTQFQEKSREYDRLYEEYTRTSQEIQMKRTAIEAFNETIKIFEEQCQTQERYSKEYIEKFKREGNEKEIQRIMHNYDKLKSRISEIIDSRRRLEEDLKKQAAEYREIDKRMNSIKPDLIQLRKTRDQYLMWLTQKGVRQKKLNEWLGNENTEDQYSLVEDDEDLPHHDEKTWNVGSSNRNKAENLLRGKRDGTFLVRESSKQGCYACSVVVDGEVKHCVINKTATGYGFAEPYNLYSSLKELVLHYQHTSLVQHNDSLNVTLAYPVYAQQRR
Nature of the assay: In vitro PI3 kinase enzyme assay (beta), ATP loss, bioluminescence.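 Further: purified p110β/p85 heterodimer with PtdIns(4,5)P2 as acceptor, incubated at room temperature, leftover ATP read by luminescence, inhibition scaled to compound-free wells with and without enzyme.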 In kind it is biochemical. To be noted: read-out: PI3Kβ ATP loss IC50.
Procedure: Full length p110 subunits of PI3K α, β and δ, N-terminally labeled with polyHis tag, were co-expressed with p85 in baculovirus expression vectors in sf9 insect cells. P110/p85 heterodimers were purified by sequential Ni-NTA, Q-HP, and Superdex-100 chromatography. Purified α, β and δ isozymes were stored at −20° C. in 20 mM Tris, pH 8, 0.2M NaCl, 50% glycerol, 5 mM DTT, 2 mM Na cholate.
PI3K enzyme assays (alpha, beta, delta and gamma) were performed in 25 mL with the above final concentrations of components in white polypropylene plates (Costar catalogue #3355). Phosphatidyl inositol phosphoacceptor, PtdIns(4,5)P2 (eg. P4508) was obtained from Echelon Biosciences. The ATPase activity of the alpha and gamma isozymes was not greatly stimulated by PtdIns(4,5)P2 under these conditions and was therefore omitted from the assay of these isozymes. Test compounds were dissolved in DMSO and diluted with three-fold serial dilutions. The compound in DMSO (1 μL) was added per test well, and the inhibition relative to reactions containing no compound, with and without enzyme was determined. After assay incubation at RT, the reaction was stopped and residual ATP determined by addition of an equal volume of a commercial ATP bioluminescence kit (Perkin Elmer EasyLite) according to the manufacturer's instructions, and detected using an Analyst GT luminometer.

Assay [2] addresses T2, PI3K α (Homo sapiens, UniProt P42336).
T2 construct: Full length p110 subunits of PI3K α, β and δ, N-terminally labeled with polyHis tag; polyHis (N); made in house; host or cells: Sf9 insect cells (baculovirus)
Nature of the assay: In vitro PI3 kinase enzyme assay (alpha), ATP loss, bioluminescence.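 Further: purified p110α/p85 heterodimer acting on PtdIns(4,5)P2 at room temperature, remaining ATP read by luminescence, inhibition scaled between compound-free wells with and without enzyme.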 In kind it is biochemical. As to conditions: read-out: PI3Kα ATP loss IC50.

The subject of assay [3] is phosphorylation of Serine 473 in Akt, HCT 116 human colon carcinoma cells. Kind of assay: Cell-based phospho-AKT Ser473 assay (MSD sandwich immunoassay, IGF-1 stimulated). As to conditions: read-out: HCT 116 pAKT IC50. The protocol: This assay determines the ability of test compounds to inhibit the phosphorylation of […] in Akt using a MSD based sandwich immunoassay (Meso Scale Detection, catalogue # N411CAB-1). […] Prior to the assay cells were detached from the culture flask with trypsin, and re-suspended in complete media to give a final concentration of 1.6×10^5 cells per ml. Aliquots (100 μl) of the HCT116 cell suspension were seeded into each well of a 96 well tissue culture plate (Corning Incorporated COSTAR, catalogue#3595) to give a final density of 16,000 cells per well. Cells were then incubated overnight at 37° C. The following day the cells were treated with serially diluted test compounds and incubated for 2 hours at 37° C. […] As a maximum response control, wells contained 0.5% DMSO in place of test compound. The plates were mixed at 700 rpm for 2 min to ensure even distribution of the test compound and incubated for 2 hours at 37° C. Cells were then stimulated with insulin-like growth factor 1 (Sigma, product #13769) at final concentration of 100 ng/ml for 15 minutes at 37° C. The media was then removed and the cells treated with 80 μl cell-lysis buffer (MSD) containing a cocktail of protease and phosphatase inhibitors for one hour at 4° C. […] The detection antibody was removed and plates were then washed four times with 200 μl per well of Tris wash buffer. An aliquot of 150 μl of diluted MSD read buffer was then applied to each well, and the electrochemiluminescent signal was measured using a MSD SECTORTM plate reader. This instrument measures the intensity of emitted light to determine a quantitative measure of phosphorylated Akt in each well. The dose-response data obtained with each compound were analyzed and the IC50 inhibition of Akt phosphorylation at Ser473 calculated.

The mark [4] stands for this setting: Homo sapiens, HCT-116, HCT 116 cells.

T2 sequence (P42336 whole entry, species assumed): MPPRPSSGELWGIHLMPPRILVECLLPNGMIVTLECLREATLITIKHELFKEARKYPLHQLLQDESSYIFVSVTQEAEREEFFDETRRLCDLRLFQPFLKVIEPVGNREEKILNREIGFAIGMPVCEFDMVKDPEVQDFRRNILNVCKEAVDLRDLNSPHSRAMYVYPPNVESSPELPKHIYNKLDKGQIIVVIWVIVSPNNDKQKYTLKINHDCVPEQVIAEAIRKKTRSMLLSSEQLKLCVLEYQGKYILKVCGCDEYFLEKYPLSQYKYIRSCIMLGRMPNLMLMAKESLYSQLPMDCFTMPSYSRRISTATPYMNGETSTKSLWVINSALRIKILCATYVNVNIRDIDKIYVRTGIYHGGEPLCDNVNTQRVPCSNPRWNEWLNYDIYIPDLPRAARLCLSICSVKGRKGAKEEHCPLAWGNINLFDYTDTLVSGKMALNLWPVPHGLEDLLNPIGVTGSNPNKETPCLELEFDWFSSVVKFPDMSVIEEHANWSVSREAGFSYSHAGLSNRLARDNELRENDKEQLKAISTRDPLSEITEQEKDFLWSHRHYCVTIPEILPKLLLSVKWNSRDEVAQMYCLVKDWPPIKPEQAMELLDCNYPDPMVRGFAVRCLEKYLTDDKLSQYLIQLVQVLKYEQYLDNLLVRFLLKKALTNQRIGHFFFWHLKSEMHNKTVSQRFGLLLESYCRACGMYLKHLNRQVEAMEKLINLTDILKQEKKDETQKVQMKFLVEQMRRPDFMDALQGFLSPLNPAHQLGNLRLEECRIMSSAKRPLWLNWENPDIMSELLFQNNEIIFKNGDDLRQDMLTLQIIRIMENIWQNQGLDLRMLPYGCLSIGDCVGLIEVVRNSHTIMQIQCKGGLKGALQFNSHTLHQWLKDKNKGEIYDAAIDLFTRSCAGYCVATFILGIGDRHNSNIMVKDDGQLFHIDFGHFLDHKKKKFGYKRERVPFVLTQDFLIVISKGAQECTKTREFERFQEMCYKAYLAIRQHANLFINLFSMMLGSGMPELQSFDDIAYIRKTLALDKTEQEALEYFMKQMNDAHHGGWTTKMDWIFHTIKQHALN
T2 sequence (P27986 whole entry partner, species assumed): as the sequence (P27986 whole entry partner) above

In the case of `CC(=O)Nc1nc2ccc(-c3cncc(NS(=O)(=O)c4ccc(Cl)c(Cl)c4)c3)cc2s1` [Example 200, N-(6-(5-(3,4-dichlorophenylsulfonamido)pyridin-3-yl)benzo[d]thiazol-2-yl)acetamide], the half-maximal inhibitory concentration (IC50) stood at 0.0098 µM in assay [1], 0.0056 µM in assay [2] and 0.0357 µM in assay [3] (setting [4]).
The like results for `CCCCS(=O)(=O)Nc1cc(-c2ccc3nc(NC(C)=O)sc3c2)cnc1Cl` [Example 178, N-(6-(5-(butylsulfonamido)-6-chloropyridin-3-yl)benzo[d]thiazol-2-yl)acetamide] were, in that order, 0.0199 µM, 0.0106 µM and 0.0156 µM.
The like results for `CC(=O)Nc1nc2ccc(-c3ccnc(Sc4ccccc4F)n3)cc2s1` [Example 23, N-(6-(2-((2-fluorophenyl)sulfanyl)-4-pyrimidinyl)-1,3-benzothiazol-2-yl)acetamide] were, in that order, 0.307 µM, 0.0623 µM and 0.35 µM.
In the case of `COc1ccc(S(=O)(=O)N(C)c2nccc(-c3ccc4nc(NC(C)=O)sc4c3)n2)cc1` [Example 88, N-(6-(2-(4-Methoxy-N-methylphenylsulfonamido)pyrimidin-4-yl)benzo[d]thiazol-2-yl)acetamide], the IC50 in assay [1] was 0.0791 µM; in assay [2] it was 0.0393 µM; in assay [3] (setting [4]) it was 0.0688 µM.
`CC(=O)Oc1cc(-c2ccc3ncsc3c2)cnc1Cl` [Example 335, 5-(1,3-benzothiazol-6-yl)-2-chloro-3-pyridinyl acetate]: the values for the concentration for half-maximal inhibition (IC50) in assay [1], in assay [2] and in assay [3] (setting [4]) were 0.113 µM, 0.0156 µM and 0.044 µM, respectively.
The like results for `CC(=O)Nc1nc2ccc(-c3ccnc(N(C)S(=O)(=O)c4ccc(C(C)(C)C)cc4)n3)cc2s1` [Example 205, N-(6-(2-(4-tert-butyl-N-methylphenylsulfonamido)pyrimidin-4-yl)benzo[d]thiazol-2-yl)acetamide] were, in that order, 0.0872 µM, 0.0295 µM and 0.0576 µM.
Regarding `CC(=O)Nc1nc2ccc(-c3ccnc(OCc4ccncc4)n3)cc2s1` [Example 17, N-(6-(2-(4-pyridinylmethoxy)-4-pyrimidinyl)-1,3-benzothiazol-2-yl)acetamide], the IC50 in assay [1] was 11.1 µM; in assay [2] it was 0.523 µM; in assay [3] (setting [4]), 1.06 µM.
The like results for `COc1ccc(S(=O)(=O)N(C)c2cncc(-c3ccc4nc(NC(C)=O)sc4c3)n2)cc1` [Example 126, N-(6-(6-(((4-methoxyphenyl)sulfonyl)(methyl)amino)-2-pyrazinyl)-1,3-benzothiazol-2-yl)acetamide] were, in that order, 0.321 µM, 0.0271 µM and 0.0806 µM.
With `COCCNc1nccc(-c2ccc3nc(NC(C)=O)sc3c2)n1` [Example 47, N-(6-(2-((2-methoxyethyl)amino)-4-pyrimidinyl)-1,3-benzothiazol-2-yl)acetamide], the IC50 was found to be 18.4 µM in assay [1], 0.696 µM in assay [2] and 1.15 µM in assay [3] (setting [4]).
The like results for `CC(=O)Nc1nc2ccc(-c3cnc(Cl)c(NS(=O)(=O)C(C)C)c3)cc2s1` [Example 179, N-(6-(6-chloro-5-(propan-2-ylsulfonamido)pyridin-3-yl)benzo[d]thiazol-2-yl)acetamide] were, in that order, 0.0307 µM, 0.0127 µM and 0.0294 µM.
Taken in the same sequence, the figures for `CC(=O)Nc1nc2ccc(-c3cnc(C)c(NS(=O)(=O)c4ccccc4)c3)cc2s1` [Example 110, N-(6-(6-methyl-5-(phenylsulfonamido)pyridin-3-yl)benzo[d]thiazol-2-yl)acetamide] were 0.0106 µM, 0.0038 µM and 0.0314 µM.
Taken in the same sequence, the figures for `CNc1nc2ccc(-c3cnc(Cl)c(NS(=O)(=O)c4ccc(F)cc4)c3)cc2s1` [Example 317, N-(2-chloro-5-(2-(methylamino)-1,3-benzothiazol-6-yl)-3-pyridinyl)-4-fluorobenzenesulfonamide] were 0.0302 µM, 0.0086 µM and 0.246 µM.
Regarding `CC(=O)Nc1nc2ccc(-c3cnc(Cl)c(NC(C)C)c3)cc2s1` [Example 132, N-(6-(6-chloro-5-((1-methylethyl)amino)-3-pyridinyl)-1,3-benzothiazol-2-yl)acetamide], the IC50 was 0.379 µM in assay [1], 0.0414 µM in assay [2] and 0.316 µM in assay [3] (setting [4]).
As to `COc1ccc(S(=O)(=O)N(C)c2nccc(-c3cc(F)c4nc(NC(C)=O)sc4c3)n2)cc1` [Example 143, N-(4-fluoro-6-(2-(((4-methoxyphenyl)sulfonyl)(methyl)amino)-4-pyrimidinyl)-1,3-benzothiazol-2-yl)acetamide], the 50% inhibitory concentration (IC50) came to 0.109 µM in assay [1], 0.111 µM in assay [2] and 0.328 µM in assay [3] (setting [4]).
Taken in the same sequence, the figures for `CC(=O)Nc1nc2ccc(-c3ccnc(Sc4ccc(C)cc4)n3)cc2s1` [Example 36, N-(6-(2-((4-methylphenyl)sulfanyl)-4-pyrimidinyl)-1,3-benzothiazol-2-yl)acetamide] were 0.554 µM, 0.0595 µM and 2.32 µM.
In the case of `CC(=O)Nc1nc2ccc(-c3cnc(Cl)c(NS(=O)(=O)c4ccc(C(C)O)cc4)c3)cc2s1` (single isomer, unassigned) [Example 257, N-(6-(6-chloro-5-(((4-(1-hydroxyethyl)phenyl)sulfonyl)amino)-3-pyridinyl)-1,3-benzothiazol-2-yl)acetamide], the half-inhibitory concentration (IC50) in assay [1] was 0.0072 µM; in assay [2] it was 0.0062 µM; in assay [3] (HCT 116 cells), 0.0083 µM.
`CC(=O)Nc1nc2ccc(-c3cncc(NS(=O)(=O)c4ccc(C(F)(F)F)cc4)c3)cc2s1` [Example 196, N-(6-(5-(4-(trifluoromethyl)phenylsulfonamido)pyridin-3-yl)benzo[d]thiazol-2-yl)acetamide]: the 50% inhibitory concentration (IC50) was 0.0157 µM in assay [1], 0.0067 µM in assay [2] and 0.123 µM in assay [3] (setting [4]).
The like results for `CC(=O)Nc1nc2ccc(-c3ccnc(OC(C)C)n3)cc2s1` [Example 6, N-(6-(2-(1-methylethoxy)-4-pyrimidinyl)-1,3-benzothiazol-2-yl)acetamide] were, in that order, 2.14 µM, 0.24 µM and 0.919 µM.
Taken in the same sequence, the figures for `Cc1cc(F)ccc1S(=O)(=O)Nc1cc(-c2ccc3nc(N)sc3c2)cnc1Cl` [Example 312, N-(5-(2-amino-1,3-benzothiazol-6-yl)-2-chloro-3-pyridinyl)-4-fluoro-2-methylbenzenesulfonamide] were 0.0249 µM, 0.006 µM and 0.348 µM.
Taken in the same sequence, the figures for `CC(=O)Nc1nc2ccc(-c3cnc(Cl)c(NS(=O)(=O)c4ccc(OC(F)F)cc4)c3)cc2s1` [Example 182, N-(6-(6-chloro-5-(4-(difluoromethoxy)phenylsulfonamido)pyridin-3-yl)benzo[d]thiazol-2-yl)acetamide] were 0.006 µM, 0.006 µM and 0.0249 µM.
On to `CC(=O)Nc1nc2ccc(-c3cnc(Cl)c(F)c3)cc2s1` [Example 238, N-(6-(6-chloro-5-fluoropyridin-3-yl)benzo[d]thiazol-2-yl)acetamide], for which the concentration for half-maximal inhibition (IC50) amounted to 0.251 µM in assay [2] and 1.49 µM in assay [3] (setting [4]).
Taken in the same sequence, the figures for `COc1cc(-c2ccc3nc(NC(C)=O)sc3c2)cnc1Br` [Example 237, N-(6-(6-bromo-5-methoxypyridin-3-yl)benzo[d]thiazol-2-yl)acetamide] were 8.37 µM and more than 5 µM.
